Source: article PMC10226132, “First-in-Class Selective Inhibitors of the Lysine Acetyltransferase KAT8” (Journal of Medicinal Chemistry, 2023)

Columns and labels:
KDAC3 = KDAC3 (Homo sapiens, UniProt O15379); assay: KDAC inhibition assay, KDAC3; format: biochemical; settings: mean of three technical replicates
Experimental: (§1) KDAC1, 2, 3 6, and 8 inhibition assays were performed as described previously.[52] Briefly, the relevant human recombinant KDAC was diluted in an assay buffer with the following composition: 150 mM NaCl, 25 mM Tris–HCl (pH 8.0), 2.7 mM KCl, and 1 mM MgCl2; BSA (0.1 mg/mL) was also added in the case of KDAC1. Forty microliters of this solution were added to 10 μL of each inhibitor ([…]) and 50 μL of KDAC Assay substrate (Boc-Lys-(Ac)-AMC, 7–100 μM final concentration, depending on the KDAC isoform), and the resulting solution was mixed. […] After thorough mixing of the resulting solution, the plate was covered and incubated at 37 °C for 25 min and the fluorescence (λemission = 460 nm; λexcitation = 390 nm) was measured on a EnSight Multimode Plate Reader (Perkin Elmer). The shown values are average of three technical replicates ± SD.

KDAC1 = KDAC1 (Homo sapiens, UniProt Q13547); assay: KDAC inhibition assay, KDAC1; format: biochemical; settings: mean of three technical replicates
Chain of KDAC1 (Q13547 whole entry): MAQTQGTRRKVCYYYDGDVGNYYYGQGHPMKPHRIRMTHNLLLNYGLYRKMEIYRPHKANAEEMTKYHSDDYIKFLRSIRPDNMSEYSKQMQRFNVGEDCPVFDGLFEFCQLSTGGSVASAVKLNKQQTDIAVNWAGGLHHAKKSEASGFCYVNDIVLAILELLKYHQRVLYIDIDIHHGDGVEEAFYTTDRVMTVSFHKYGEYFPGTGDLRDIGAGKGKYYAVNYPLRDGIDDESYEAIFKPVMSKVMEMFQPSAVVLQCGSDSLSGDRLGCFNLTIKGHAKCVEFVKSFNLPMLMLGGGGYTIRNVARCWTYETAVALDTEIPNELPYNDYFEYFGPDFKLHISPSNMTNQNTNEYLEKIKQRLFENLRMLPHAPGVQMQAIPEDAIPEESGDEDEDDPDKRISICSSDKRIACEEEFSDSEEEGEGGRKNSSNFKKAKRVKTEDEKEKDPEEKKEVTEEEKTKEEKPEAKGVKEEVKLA
Experimental: as §1

MCF7 cells = assay: MTT cell proliferation assay, MCF7; format: cell-based, human; settings: 10, 25, 50, 100 μM, 72 h
Description: (§2) Human commercially available AML U937, breast cancer MCF7, lung adenocarcinoma NCI-H460, H1299 and A-549, glioblastoma U251, B lymphocyte AHH1 cell lines were maintained in compete 10% foetal bovine serum (FBS,) RPMI 1640 (Euroclone, Milan, IT) medium. Human commercially available colon cancer HCT116 and HT29 lines and cervix adenocarcinoma HeLa cells were maintained in compete 10% FBS Dulbecco’s Modified Eagle Medium (DMEM) high glucose medium (Euroclone). L-Glutamine, FBS, and penicillin streptomycin mixture added to medium were obtained from Euroclone. All cell lines were cultured at 37 °C in a humidified atmosphere of 5% CO2:95% air and were tested for mycoplasma contamination routinely by RT-PCR.
(§3) For analysis of cell proliferation, cells were plated in sextuplicate on 96-well plates in complete media. After 24 h, cells were exposed to different drugs for 72 h. The inhibitory effect of different drugs was assessed by MTT (Sigma, St. Louis, MO, USA) colorimetric assays as previously reported.[67] Aqueous DMSO (0.5% v/v) was used as a control (untreated). The results are reported as “viability of drug-treated cells/viability of untreated cells” × 100 and represent the average ±SD of three independent experiments. IC50 values were using fitted by nonlinear regression using GraphPad Prism 8.0.

AHH-1 cells = assay: Proliferation of noncancer B lymphocyte AHH-1 cells; format: cell-based, human; settings: 72 h; for effect on proliferation of AHH-1 cells: 25, 50, 100, 200 μM; for IC50: Homo sapiens, AHH-1, NI = no inhibition at 200 µM
Description: as §2, §3

HCT116 cells [1] = assay: Cell cycle analysis by propidium iodide staining, HCT116; format: cell-based, human; settings: 72 h
Experimental: (§4) For the analysis of the progression of cells through cell cycle phases and sub-G1 peak identification, 24 h after plating, cells were treated with the different compounds. After 72 h, both floating and adherent cells were collected and fixed with cold 70% ethanol. At least 24 h after fixation, cells were incubated with 0.025 mg/mL Propidium Iodide for 15 min at room temperature and analyzed. For Annexin V analysis, 24 h after plating, cells were treated with 50 and 100 μM of the compounds. In the case of chloroquine experiments, 10 μM chloroquine (Sigma-Aldrich, A9165) was added 30 min before compounds. 72 h after treatment, both floating and adherent cells were collected and stained with an Annexin V-FITC apoptosis detection kit (ENZO #ALX-850-020-KI). Samples were incubated 15 min in the dark at rt, and 10,000 events were then analyzed.

HCT116 cells [2] = assay: MTT cell proliferation assay, HCT116; format: cell-based, human; settings: for antiproliferative activity in HCT116: 10, 25, 50, 100 μM, 72 h; for IC50: Homo sapiens, HCT-116, 72 h treatment, MTT
Description: as §2, §3

[3] = test system: normal human lung fibroblasts (NHLF); assay: Proliferation of normal human lung fibroblasts (NHLF); format: cell-based; settings: 25, 50, 100, 200 μM, 72 h
Experimental: as §3

HeLa cells = assay: Annexin V/PI analysis, HeLa; format: cell-based, human; settings: 50 and 100 μM, 72 h, compared to control
Experimental: as §4

KAT8 = target: T1, KAT8 (Homo sapiens, UniProt Q9H7Z6); assay: SPR-based KAT8 binding assay; settings: immobilized KAT8, 25 °C, read-out: equilibrium dissociation constant (KD)
T1 construct: using the previously purified KAT8 (173–458, 5 nM); 6xHis tag with TEV protease cleavage site (N, cleaved yes); made in house; host or cells: E. coli BL21(DE3)
T1 sequence (Q9H7Z6 173-458): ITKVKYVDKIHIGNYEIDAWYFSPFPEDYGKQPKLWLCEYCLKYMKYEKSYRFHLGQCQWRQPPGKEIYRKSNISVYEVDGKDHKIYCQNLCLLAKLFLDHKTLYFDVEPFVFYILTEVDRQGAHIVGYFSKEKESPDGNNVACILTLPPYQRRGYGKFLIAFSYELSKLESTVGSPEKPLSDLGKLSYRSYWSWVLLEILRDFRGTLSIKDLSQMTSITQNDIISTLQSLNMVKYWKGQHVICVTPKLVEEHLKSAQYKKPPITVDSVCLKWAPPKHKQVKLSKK
Experimental: SPR analyses were performed on a Biacore 3000 optical biosensor (GE Healthcare) equipped with a research-grade CM5 sensor chip. KAT8 was immobilized (30 μg/mL in 10 mM sodium acetate, pH 4.5) at a flow rate of 10 μL/min by using a standard amine-coupling protocol to obtain a density of 12 kRU. One flow cell was left empty for background subtractions. Both compounds, dissolved in DMSO (100%), were diluted in assay buffer (150 mM NaCl, 10 mM HEPES pH 7.4, 0.005% Tween-20), always maintaining a final 1% DMSO concentration. Binding experiments were performed at 25 °C by using a flow rate of 30 μL/min, with 120 s monitoring of association and 200 s monitoring of dissociation. Regeneration of the surfaces was performed, when necessary, by a 10 s injection of 1 mM NaOH.

Chain of KDAC3 (O15379 whole entry, canonical isoform): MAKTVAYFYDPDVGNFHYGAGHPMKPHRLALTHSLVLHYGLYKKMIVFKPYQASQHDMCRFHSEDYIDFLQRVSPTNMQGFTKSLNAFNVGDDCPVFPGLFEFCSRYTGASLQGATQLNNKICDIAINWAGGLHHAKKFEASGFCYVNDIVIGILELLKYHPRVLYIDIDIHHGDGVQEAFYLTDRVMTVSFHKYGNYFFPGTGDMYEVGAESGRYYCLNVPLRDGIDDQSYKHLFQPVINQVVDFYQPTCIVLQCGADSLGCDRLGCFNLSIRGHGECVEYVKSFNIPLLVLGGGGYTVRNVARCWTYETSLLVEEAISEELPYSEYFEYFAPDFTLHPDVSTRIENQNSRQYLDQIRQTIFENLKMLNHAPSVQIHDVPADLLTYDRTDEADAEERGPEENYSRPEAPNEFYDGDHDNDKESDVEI
Chain of KDAC3 (Q9Y618 395-489 partner limits assumed): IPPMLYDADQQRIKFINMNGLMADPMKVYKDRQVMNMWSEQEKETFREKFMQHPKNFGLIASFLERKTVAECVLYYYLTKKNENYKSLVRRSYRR

| inhibition at 50 µM (KDAC3) | inhibition at 100 µM (KDAC3) | inhibition at 50 µM (KDAC1) | inhibition at 100 µM (KDAC1) | IC50 (HCT116 cells [2]) | Kd (KAT8) | SMILES | antiproliferative activity in MCF7 (MCF7 cells) | effect on proliferation of AHH-1 cells (AHH-1 cells) | IC50 (AHH-1 cells) | change in the different stages of cell cycle, HCT116 (HCT116 cells [1]) | antiproliferative activity in HCT116 (HCT116 cells [2]) | effect on proliferation of NHLF [3] | apoptotic cell population (Annexin V), HeLa (HeLa cells) |
| --- | --- | --- | --- | --- | --- | --- | --- | --- | --- | --- | --- | --- | --- |
| 54.5% | 86.2% | 0.7% | 1.3% |  |  | CC1=NN(c2ccc(C(=O)O)cc2)C(=O)/C1=C\c1ccc(-c2cc(C)c(C)cc2[N+](=O)[O-])o1 [VII (C646), reference compound] |  |  |  |  |  |  |  |
| 0.02% | 0.6% | 0.04% | 0.5% | 46.6 ± 11.5 µM | 2.04 ± 0.24 µM | O=C(O)c1ccc(N2N=C(c3ccccc3)/C(=C/c3ccc[nH]3)C2=O)cc1 [Compound 34, (Z)-4-(4-((1H-Pyrrol-2-yl)methylene)-5-oxo-3-phenyl-4,5-dihydro-1H-pyrazol-1-yl)benzoic Acid] | neither inhibitor had any effect | did not significantly affect the proliferation | > 200 µM | no significative change | dose-dependent antiproliferative effects | did not significantly affect the proliferation | only a slight increase in apoptotic cell population |
| 0.5% | 1.1% | 0.03% | 0.3% | 39.4 ± 8.2 µM | 4.94 ± 0.18 µM | CC1=NN(c2ccc(C(=O)O)cc2)C(=O)/C1=C\c1ccc[nH]1 [Compound 19, (Z)-4-(4-((1H-Pyrrol-2-yl)methylene)-3-methyl-5-oxo-4,5-dihydro-1H-pyrazol-1-yl)benzoic Acid] | neither inhibitor had any effect | did not significantly affect the proliferation | > 200 µM | no significative change | dose-dependent antiproliferative effects | did not significantly affect the proliferation | only a slight increase in apoptotic cell population |
